Test results: article PMC9948168, “Vanillin-Based Indolin-2-one Derivative Bearing a Pyridyl Moiety as a Promising Anti-Breast Cancer Agent via Anti-Estrogenic Activity” (ACS Omega, 2023)

What was measured:
Assay in all cases: NCI-60 one-dose screening
Type in all cases: cell-based
786-0 = settings: Homo sapiens, 786-0, Renal Cancer, read-out: GI (%)
Protocol: (§1) Compounds 5a–c and 6a–o were tested using standard NCI protocols for in vitro activity at the National Cancer Institute (NCI, Bethesda, Maryland, USA), wherein compounds were tested using one single concentration of 10 μM against 60 cell lines of nine different cancer types. […] Excellent activity was observed against a single NSCLC cell line, EKVX, for compounds 5a–c (GIs = 77–86%, Table 1) with no observed activity for indoles with substituted vanillin 6a–o.
(§2) Anticancer activity was tested against 60 cancer cell lines at the NCI, Bethesda, USA. The screening process was done with a single dosage of 10 μM according to NCI protocols published on the NCI website https://dtp.cancer.gov/discovery_development/nci-60/methodology.htm.

A498 = settings: Homo sapiens, A498, Renal Cancer, read-out: GI (%)
Protocol: as §1, §2

ACHN = settings: Homo sapiens, Renal Cancer, read-out: GI (%)
Protocol: as §1, §2

CCRF-CEM = settings: Homo sapiens, Leukemias, read-out: GI (%)
Protocol: as §1, §2

COLO 205 = settings: Homo sapiens, COLO 205, Colon Cancer, read-out: GI (%)
Protocol: as §1, §2

DU-145 = settings: Homo sapiens, DU-145, Prostate Cancer, read-out: GI (%)
Protocol: as §1, §2

HCT-116 = settings: Homo sapiens, HCT-116, Colon Cancer, read-out: GI (%)
Protocol: as §1, §2

HCT-15 = settings: Homo sapiens, HCT-15, Colon Cancer, read-out: GI (%)
Protocol: as §1, §2

HOP-62 = settings: Homo sapiens, HOP-62, Non-Small Cell Lung Cancer, read-out: GI (%)
Protocol: as §1, §2

HOP-92 = settings: Homo sapiens, HOP-92, Non-Small Cell Lung Cancer, read-out: GI (%)
Protocol: as §1, §2

HT29 = settings: Homo sapiens, HT-29, HT29, Colon Cancer, read-out: GI (%)
Protocol: as §1, §2

IGROV1 = settings: Homo sapiens, IGROV-1, IGROV1, Ovarian Cancer, read-out: GI (%)
Protocol: as §1, §2

K-562 = settings: Homo sapiens, K562, K-562, Leukemias, read-out: GI (%)
Protocol: as §1, §2

KM12 = settings: Homo sapiens, KM12, Colon Cancer, read-out: GI (%)
Protocol: as §1, §2

LOX IMVI = settings: Homo sapiens, Melanoma, read-out: GI (%)
Protocol: as §1, §2

MALME-3M = settings: Homo sapiens, Melanoma, read-out: GI (%)
Protocol: as §1, §2

MCF7 = settings: Homo sapiens, MCF7, 10 μM; MCF7, Breast Cancer; read-out: GI (%)
Protocol: as §1, §2

MDA-MB-231/ATCC = settings: Homo sapiens, Breast Cancer, read-out: GI (%)
Protocol: as §1, §2

MDA-MB-435 = settings: Homo sapiens, MDA-MB-435, Melanoma, read-out: GI (%)
Protocol: as §1, §2

MDA-MB-468 = settings: Homo sapiens, MDA-MB-468, Breast Cancer, read-out: GI (%)
Protocol: as §1, §2

NCI-H226 = settings: Homo sapiens, NCI-H226, Non-Small Cell Lung Cancer, read-out: GI (%)
Protocol: as §1, §2

NCI-H322M = settings: Homo sapiens, Non-Small Cell Lung Cancer, read-out: GI (%)
Protocol: as §1, §2

NCI-H460 = settings: Homo sapiens, NCI-H460, Non-Small Cell Lung Cancer, read-out: GI (%)
Protocol: as §1, §2

OVCAR-5 = settings: Homo sapiens, OVCAR-5, Ovarian Cancer, read-out: GI (%)
Protocol: as §1, §2

OVCAR-8 = settings: Homo sapiens, OVCAR-8, Ovarian Cancer, read-out: GI (%)
Protocol: as §1, §2

PC-3 = settings: Homo sapiens, PC-3, Prostate Cancer, read-out: GI (%)
Protocol: as §1, §2

RPMI-8226 = settings: Homo sapiens, RPMI-8226, Leukemias, read-out: GI (%)
Protocol: as §1, §2

SF-539 = settings: Homo sapiens, SF-539, CNS Cancer, read-out: GI (%)
Protocol: as §1, §2

SK-OV-3 = settings: Homo sapiens, SK-OV-3, Ovarian Cancer, read-out: GI (%)
Protocol: as §1, §2

SN12C = settings: Homo sapiens, Renal Cancer, read-out: GI (%)
Protocol: as §1, §2

SNB-75 = settings: Homo sapiens, SNB-75, CNS Cancer, read-out: GI (%)
Protocol: as §1, §2

SR = settings: Homo sapiens, Leukemias, read-out: GI (%)
Protocol: as §1, §2

SW-620 = settings: Homo sapiens, SW-620, Colon Cancer, read-out: GI (%)
Protocol: as §1, §2

TK-10 = settings: Homo sapiens, TK-10, Renal Cancer, read-out: GI (%)
Protocol: as §1, §2

U251 = settings: Homo sapiens, U-251, U251, CNS Cancer, read-out: GI (%)
Protocol: as §1, §2

UACC-257 = settings: Homo sapiens, UACC-257, Melanoma, read-out: GI (%)
Protocol: as §1, §2

Row | SMILES | inhibition at 10 µM (786-0) [%] | inhibition at 10 µM (A498) [%] | inhibition at 10 µM (ACHN) [%] | inhibition at 10 µM (CCRF-CEM) [%] | inhibition at 10 µM (COLO 205) [%] | inhibition at 10 µM (DU-145) [%] | inhibition at 10 µM (HCT-116) [%] | inhibition at 10 µM (HCT-15) [%] | inhibition at 10 µM (HOP-62) [%] | inhibition at 10 µM (HOP-92) [%] | inhibition at 10 µM (HT29) [%] | inhibition at 10 µM (IGROV1) [%] | inhibition at 10 µM (K-562) [%] | inhibition at 10 µM (KM12) [%] | inhibition at 10 µM (LOX IMVI) [%] | inhibition at 10 µM (MALME-3M) [%] | inhibition at 10 µM (MCF7) [%] | inhibition at 10 µM (MDA-MB-231/ATCC) [%] | inhibition at 10 µM (MDA-MB-435) [%] | inhibition at 10 µM (MDA-MB-468) [%] | other results
1 | COc1cc(C=C2C(=O)Nc3ccc(Cl)cc32)ccc1OCc1ccc(Cl)cc1 (mixture of isomers) [6g] | 4.52 | 13.5 | 71.9 | 18.1 | -7.05 | 6.57 | 49 | 13.9 | 13.1 | 27.8 | 6.96 | 37.5 | 10.4 | 3.49 | 46.1 | 18.7 | 54.4 | 21.6 | -1.14 | 17.2 | inhibition at 10 µM (NCI-H226): 17.1%; inhibition at 10 µM (NCI-H322M): 22.9%; inhibition at 10 µM (NCI-H460): 50.5%; inhibition at 10 µM (OVCAR-5): 3.04%; inhibition at 10 µM (OVCAR-8): 8.51%; inhibition at 10 µM (PC-3): 22.3%; inhibition at 10 µM (RPMI-8226): -3.63%; inhibition at 10 µM (SF-539): 10.7%; inhibition at 10 µM (SK-OV-3): 2.96%; inhibition at 10 µM (SN12C): 9.18%; inhibition at 10 µM (SNB-75): 28.1%; inhibition at 10 µM (SR): 41.6%; inhibition at 10 µM (SW-620): 23%; inhibition at 10 µM (TK-10): -56%; inhibition at 10 µM (U251): 52.1%; inhibition at 10 µM (UACC-257): -8.01%
2 | COc1cc(C=C2C(=O)Nc3ccccc32)ccc1O (mixture of isomers) [5a] | -0.72 | 2.96 | 22.8 | 10.2 | -13.8 | 11.2 | 24.2 | 25.7 | 20.7 | 35 | -1.86 | 25.6 | 9.79 | 9.4 | 28.6 | 7.51 | 44.8 | 33.7 | 18.5 | 32.7 | inhibition at 10 µM (NCI-H226): -2.09%; inhibition at 10 µM (NCI-H322M): 19.5%; inhibition at 10 µM (NCI-H460): 8.35%; inhibition at 10 µM (OVCAR-5): -2.51%; inhibition at 10 µM (OVCAR-8): 15.5%; inhibition at 10 µM (PC-3): 15.6%; inhibition at 10 µM (RPMI-8226): 10.8%; inhibition at 10 µM (SF-539): 22.6%; inhibition at 10 µM (SK-OV-3): 5.29%; inhibition at 10 µM (SN12C): 16%; inhibition at 10 µM (SNB-75): 50.6%; inhibition at 10 µM (SR): 36%; inhibition at 10 µM (SW-620): -0.49%; inhibition at 10 µM (TK-10): -90.5%; inhibition at 10 µM (U251): 22.2%; inhibition at 10 µM (UACC-257): 11.3%
3 | COc1ccc(COc2ccc(/C=C3/C(=O)Nc4cc(Cl)ccc43)cc2OC)cc1 [6n] | -6.9 | 6.39 | 5.82 | 5.65 | -11.1 | 3.17 | 11.1 | 0.12 | 4.49 | -8.09 | -0.76 | 20.1 | -2.8 | 0.42 | -2.89 | 2.77 | 24 | 5.7 | -5.13 | 7.72 | inhibition at 10 µM (NCI-H226): 6.67%; inhibition at 10 µM (NCI-H322M): 3.24%; inhibition at 10 µM (NCI-H460): 20.7%; inhibition at 10 µM (OVCAR-5): 2.3%; inhibition at 10 µM (OVCAR-8): 1.31%; inhibition at 10 µM (PC-3): 7.65%; inhibition at 10 µM (RPMI-8226): 9.52%; inhibition at 10 µM (SF-539): 9.72%; inhibition at 10 µM (SK-OV-3): -7.5%; inhibition at 10 µM (SN12C): 4.32%; inhibition at 10 µM (SNB-75): -12.8%; inhibition at 10 µM (SR): 0.64%; inhibition at 10 µM (SW-620): 3.63%; inhibition at 10 µM (TK-10): -64.4%; inhibition at 10 µM (U251): -6.11%; inhibition at 10 µM (UACC-257): -21.9%
